Results published in article PMC9000710, “Synthesis and Hemostatic Activity of New Amide Derivatives” (Molecules, 2022).
Where a name gives a salt, the structure may show the parent alone.

Legend:
[1] = Hemolysis assay (stability of erythrocytes); type: cell-based, human; details: male, human, heparinized whole blood diluted with saline (erythrocytes); for hemolysis at 45 min, 5 mg/L / hemolysis at 120 min, 5 mg/L / hemolysis at 240 min, 5 mg/L: c 5 mg/L
Description: Heparinized whole blood was used from a healthy volunteer. The whole blood (10 mL) was diluted with saline solution (90 mL). For each UV-Vis measurement, 2.5 mL of diluted blood was used. For each blood sample, 1 mL of a saline solution containing hydrochlorides 1–8 at concentrations of 5, 50, and 500 mg/L was added. As a control were used blood samples with the addition of 1% solution of DMSO in saline and 1% solution of SDS in saline. In all cases, the measurements were repeated twice for each concentration. […] The cells were centrifuged, and the absorbance of the supernatant, which contained plasma and lysed erythrocytes, was measured at 540 nm. The percentage of lysis was calculated from a standard curve of lysed erythrocytes treated with SDS [52].

human blood plasma [2] = experiment: Clot formation and fibrinolysis (CFF) assay; type: biochemical; details: for Amax (maximum of fibrin clot absorbance at 360 nm) / VmaxC (of Fibrin Polymerization) / VmaxF (of Fibrin Clot Lysis): control plasma assumed as 100%, mean ± SD, n = 5–7
Excerpt: The CFF assay enables analysis of both the blood plasma coagulation process and fibrinolysis efficiency. The thrombin enzyme in the reagent mixture initiates blood plasma fibrinogen polymerization, leading to an increase in absorbance in the sample until the maximal absorbance (Amax) is attained. The fibrinolytic activity of blood plasma is induced by the tissue-type plasminogen activator (t-PA). The activation of fibrinolysis in the tested samples leads to fibrin clot degradation and decreases the absorbance to the baseline.
Figure 11 An exemplary curve of blood plasma coagulation and clot lysis recorded during the clot formation and fibrinolysis (CFF) assay. The first step in the CFF test involves activation of the blood plasma coagulation cascade and fibrin clot formation (1). It is characterized by the maximal velocity of the fibrin polymerization parameter (VmaxC). The maximal absorbance (Amax) peak corresponds to the fibrin stabilization phase and is an indicator of fibrin clot thickness (2). The third step of the CFF assay covers the activation of fibrinolytic mechanisms and fibrin clot degradation (3) and is described by the maximal velocity of clot lysis (VmaxF).
Thrombin was purchased from BioMed (Lublin, Poland). A tissue-type plasminogen activator (Actilyse®) was purchased from Boehringer Ingelheim, Ingelheim am Rhein, Germany. Kinetic measurements were executed using a SpectrostarNano microplate spectrophotometer (BMG LabTech, Ortenberg, Germany).
Measurements were performed using a kinetic model, as described in our previous work. Briefly, blood plasma was preincubated with the examined substances (at final concentrations of 10, 25, and 50 mg/L) for 15 min at 37 °C. Then, 100 μL of blood plasma was added to microtiter plate wells, which was followed by 200 μL of the reagent mixture (0.75 U/mL thrombin, 225 ng/mL t-PA and 7.5 mM CaCl2) suspended in tris-buffered saline (0.05 M TBS, 0.9% NaCl; pH 7.4). Measurements of absorbance changes were started immediately and continued for 60 min at 37 °C, λ = 360 nm. The following parameters were used to determine the effects of the examined substances on the coagulation and fibrinolytic properties of the blood plasma: the maximal velocity of fibrinogen polymerization (VmaxC), which is an indicator of the plasma coagulation efficiency; the maximal absorbance (Amax), which is an indicator of the fibrin clot stabilization and its thickness; the maximal velocity of clot lysis (VmaxF), which is an indicator of blood plasma fibrinolytic activity.

human blood plasma [3] = experiment: Thrombin time (TT) clotting assay; type: biochemical
Description: (§1) Human blood plasma was isolated from fresh buffy coats (collected onto the citrate-dextrose solution—ACD) purchased from the Regional Centre of Blood Donation and Blood Treatment in Lodz, Poland. In the isolation procedure, the buffy coats (60 mL units) were divided into volumes of 10 mL and centrifuged (4000 rpm/15 min) in 15 mL tubes. Next, 1 mL solutions of each amide 1–8 were prepared in distilled water at concentrations of 10, 25, and 50 mg/L. Then, 450 μL of plasma and 50 μL of each amide at the tested concentrations were placed into 1.5 mL vials. The vials were vortexed (Vortex Biosan V-1 plus), incubated at 37 °C on a thermoblock (Dry Block Thermostat Biosan TDB-120), and analyzed using a Kselmed K-3002 OPTIC coagulometer (Grudziądz, Poland), based on the manufacturer’s protocols (described below). The control sample was native blood plasma, untreated with any of the examined substances.
Both 100 μL of control plasma and plasma samples treated with the amides were transferred to measuring cuvettes, which were placed in the thermoblock module (37 °C) of the coagulometer (KSELMED K-3002 Optic). Then, 100 μL of thrombin solution (4.5 U/mL, in 0.9% NaCl; Biomed, Lublin, Poland) was added to the cuvette. Measurements were started immediately.

human blood plasma [4] = experiment: Prothrombin time (PT) clotting assay; type: biochemical
Description: as §1
(§2) Fifty microliters of control plasma and plasma samples treated with the amides were transferred to measuring cuvettes and placed in the thermoblock module (37 °C) of a coagulometer (KSELMED, K-3002 Optic). Then, 100 μL of Dia-PT reagent (DIAGON Kft. Hungary; cat. no. 81100) was added. Measurements were started immediately.

human blood plasma [5] = experiment: Activated partial thromboplastin time (aPTT) clotting assay; type: biochemical
Description: as §1
as §2, with “of the” for “of a”, “Then, 50” for “Then, 100”, “of Dia-APTT” for “of Dia-PT”, “no. 72048) was added. The mixture was incubated for 180 s at 37 °C. Finally, 50 μL of reagent Dia-CaCl2 (DIAGON Kft. Hungary; cat. no. 41192)” for “no. 81100)”

Compound | melting point [°C] | hemolysis at 45 min, 5 mg/L ([1]; 45 min) [%] | hemolysis at 120 min, 5 mg/L ([1]; 120 min) [%] | hemolysis at 240 min, 5 mg/L ([1]; 240 min) [%] | hemolysis at 45 min, 50 mg/L ([1]; c 50 mg/L, 45 min) [%] | hemolysis at 120 min, 50 mg/L ([1]; c 50 mg/L, 120 min) [%] | hemolysis at 240 min, 50 mg/L ([1]; c 50 mg/L, 240 min) [%] | hemolysis at 45 min, 500 mg/L ([1]; c 500 mg/L, 45 min) [%] | Amax (maximum of fibrin clot absorbance at 360 nm) (human blood plasma [2]; 10 mg/L) [%] | VmaxC (of Fibrin Polymerization) (human blood plasma [2]; 10 mg/L) [%] | VmaxF (of Fibrin Clot Lysis) (human blood plasma [2]; 10 mg/L) [%] | Amax (maximum of fibrin clot absorbance at 360 nm) (human blood plasma [2]; 25 mg/L) [%] | VmaxC (of Fibrin Polymerization) (human blood plasma [2]; 25 mg/L) [%] | VmaxF (of Fibrin Clot Lysis) (human blood plasma [2]; 25 mg/L) [%] | Amax (maximum of fibrin clot absorbance at 360 nm) (human blood plasma [2]; 50 mg/L) [%] | VmaxC (of Fibrin Polymerization) (human blood plasma [2]; 50 mg/L) [%] | VmaxF (of Fibrin Clot Lysis) (human blood plasma [2]; 50 mg/L) [%] | TT Time [% of Control] (human blood plasma [3]; c 10 mg/L) | TT Time [% of Control] (human blood plasma [3]; c 25 mg/L) | TT Time [% of Control] (human blood plasma [3]; c 50 mg/L) | other results
NCC(=O)NCC1CCC(C(=O)O)CC1 (stereo not drawn) (as salt: hydrochloride) [Amide 7, 2-((((1s,4s)-4-Carboxycyclohexyl)methyl)amino)-2-oxoethanaminium chloride] | 221 to 224 | – | – | – | – | – | – | – | – | – | – | – | – | – | – | – | – | – | – | – | –
Cl.NCC(=O)NCc1ccc(C(=O)O)cc1 [Amide 6, 4-((2-Aminoacetamido)methyl)benzoic acid hydrochloride] | 235 to 238 | 0.38 | 0.56 | 0.19 | 0 | 0.11 | 0.2 | 0.41 | 105.45 ± 5.46 | 104.68 ± 3.05 | 98.41 ± 14.71 | 102.41 ± 5.56 | 103.10 ± 6.82 | 100.06 ± 21.96 | 102.15 ± 2.46 | 101.11 ± 4.77 | 91.08 ± 15.49 | 92.5 ± 3.0 % of Control | 92.3 ± 2.5 % of Control | 92.8 ± 4.2 % of Control | hemolysis at 120 min, 500 mg/L ([1]; c 500 mg/L, 120 min): 0.68%; hemolysis at 240 min, 500 mg/L ([1]; c 500 mg/L, 240 min): 0.31%; TT, effect versus control in words (human blood plasma [3]; all used concentrations (10, 25, 50 mg/L)): shorter TT than the control sample; PT Time [% of Control] (human blood plasma [4]; c 10 mg/L): 96.1 ± 4.4 % of Control; PT Time [% of Control] (human blood plasma [4]; c 25 mg/L): 95.8 ± 4.3 % of Control; PT Time [% of Control] (human blood plasma [4]; c 50 mg/L): 93.5 ± 7.1 % of Control; aPTT Time [% of Control] (human blood plasma [5]; c 10 mg/L): 96.1 ± 4.2 % of Control; aPTT Time [% of Control] (human blood plasma [5]; c 25 mg/L): 97.0 ± 3.5 % of Control; aPTT Time [% of Control] (human blood plasma [5]; c 50 mg/L): 98.3 ± 3.6 % of Control
NCC(=O)NCC1CCC(C(=O)O)CC1 (stereo not drawn) [Amide 7, 2-((((1s,4s)-4-Carboxycyclohexyl)methyl)amino)-2-oxoethanaminium chloride] | – | 0 | 0.21 | 0.21 | 0.41 | 0.97 | 0.64 | 0 | 115.64 ± 11.61 | 106.86 ± 9.49 | 66.18 ± 21.32 | 120.06 ± 25.63 | 104.39 ± 8.60 | 62.99 ± 16.99 | 113.54 ± 13.76 | 111.45 ± 8.07 | 87.27 ± 8.04 | 97.2 ± 3.3 % of Control | 97.5 ± 2.5 % of Control | 96.9 ± 1.7 % of Control | hemolysis at 45 min, 50 mg/L ([1]; c 50 mg/L as printed in the third concentration block of amides 7 and 8, 45 min): 0%; hemolysis at 120 min, 50 mg/L ([1]; c 50 mg/L as printed in the third concentration block of amides 7 and 8, 120 min): 0.23%; hemolysis at 240 min, 50 mg/L ([1]; c 50 mg/L as printed in the third concentration block of amides 7 and 8, 240 min): 0.38%; decrease of VmaxF (human blood plasma [2]; concentration not given): 30–40%; Amax parameter, effect in words (human blood plasma [2]; full range of tested concentrations (10–50 µg/mL)): significantly higher; PT Time [% of Control] (human blood plasma [4]; c 10 mg/L): 95.4 ± 7.4 % of Control; PT Time [% of Control] (human blood plasma [4]; c 25 mg/L): 94.3 ± 9.7 % of Control; PT Time [% of Control] (human blood plasma [4]; c 50 mg/L): 95.3 ± 8.3 % of Control; aPTT Time [% of Control] (human blood plasma [5]; c 10 mg/L): 98.1 ± 4.6 % of Control; aPTT Time [% of Control] (human blood plasma [5]; c 25 mg/L): 99.3 ± 3.3 % of Control; aPTT Time [% of Control] (human blood plasma [5]; c 50 mg/L): 100.6 ± 4.9 % of Control
